Reference: patent publication US9085517B2, “Sulfonamide derivatives” (Pfizer Limited, priority 2011, dated 2015)
Structures can show the parent of a compound that is named as a salt.

These compounds were tested against T1, Nav1.7 (or SCN9A) channel (Homo sapiens, UniProt Q15858) (assay: Nav1.7 (hSCN9A) block, whole-cell electrophysiology on the PatchXpress platform). Settings: estimated IC50 from single point electrophysiology data, HEK cells stably expressing hSCN9A, prepulse to V1/2, read-out: Nav1.7 EIC50.
T1 construct: expressed in transfected cells
T1 sequence (Q15858 whole entry): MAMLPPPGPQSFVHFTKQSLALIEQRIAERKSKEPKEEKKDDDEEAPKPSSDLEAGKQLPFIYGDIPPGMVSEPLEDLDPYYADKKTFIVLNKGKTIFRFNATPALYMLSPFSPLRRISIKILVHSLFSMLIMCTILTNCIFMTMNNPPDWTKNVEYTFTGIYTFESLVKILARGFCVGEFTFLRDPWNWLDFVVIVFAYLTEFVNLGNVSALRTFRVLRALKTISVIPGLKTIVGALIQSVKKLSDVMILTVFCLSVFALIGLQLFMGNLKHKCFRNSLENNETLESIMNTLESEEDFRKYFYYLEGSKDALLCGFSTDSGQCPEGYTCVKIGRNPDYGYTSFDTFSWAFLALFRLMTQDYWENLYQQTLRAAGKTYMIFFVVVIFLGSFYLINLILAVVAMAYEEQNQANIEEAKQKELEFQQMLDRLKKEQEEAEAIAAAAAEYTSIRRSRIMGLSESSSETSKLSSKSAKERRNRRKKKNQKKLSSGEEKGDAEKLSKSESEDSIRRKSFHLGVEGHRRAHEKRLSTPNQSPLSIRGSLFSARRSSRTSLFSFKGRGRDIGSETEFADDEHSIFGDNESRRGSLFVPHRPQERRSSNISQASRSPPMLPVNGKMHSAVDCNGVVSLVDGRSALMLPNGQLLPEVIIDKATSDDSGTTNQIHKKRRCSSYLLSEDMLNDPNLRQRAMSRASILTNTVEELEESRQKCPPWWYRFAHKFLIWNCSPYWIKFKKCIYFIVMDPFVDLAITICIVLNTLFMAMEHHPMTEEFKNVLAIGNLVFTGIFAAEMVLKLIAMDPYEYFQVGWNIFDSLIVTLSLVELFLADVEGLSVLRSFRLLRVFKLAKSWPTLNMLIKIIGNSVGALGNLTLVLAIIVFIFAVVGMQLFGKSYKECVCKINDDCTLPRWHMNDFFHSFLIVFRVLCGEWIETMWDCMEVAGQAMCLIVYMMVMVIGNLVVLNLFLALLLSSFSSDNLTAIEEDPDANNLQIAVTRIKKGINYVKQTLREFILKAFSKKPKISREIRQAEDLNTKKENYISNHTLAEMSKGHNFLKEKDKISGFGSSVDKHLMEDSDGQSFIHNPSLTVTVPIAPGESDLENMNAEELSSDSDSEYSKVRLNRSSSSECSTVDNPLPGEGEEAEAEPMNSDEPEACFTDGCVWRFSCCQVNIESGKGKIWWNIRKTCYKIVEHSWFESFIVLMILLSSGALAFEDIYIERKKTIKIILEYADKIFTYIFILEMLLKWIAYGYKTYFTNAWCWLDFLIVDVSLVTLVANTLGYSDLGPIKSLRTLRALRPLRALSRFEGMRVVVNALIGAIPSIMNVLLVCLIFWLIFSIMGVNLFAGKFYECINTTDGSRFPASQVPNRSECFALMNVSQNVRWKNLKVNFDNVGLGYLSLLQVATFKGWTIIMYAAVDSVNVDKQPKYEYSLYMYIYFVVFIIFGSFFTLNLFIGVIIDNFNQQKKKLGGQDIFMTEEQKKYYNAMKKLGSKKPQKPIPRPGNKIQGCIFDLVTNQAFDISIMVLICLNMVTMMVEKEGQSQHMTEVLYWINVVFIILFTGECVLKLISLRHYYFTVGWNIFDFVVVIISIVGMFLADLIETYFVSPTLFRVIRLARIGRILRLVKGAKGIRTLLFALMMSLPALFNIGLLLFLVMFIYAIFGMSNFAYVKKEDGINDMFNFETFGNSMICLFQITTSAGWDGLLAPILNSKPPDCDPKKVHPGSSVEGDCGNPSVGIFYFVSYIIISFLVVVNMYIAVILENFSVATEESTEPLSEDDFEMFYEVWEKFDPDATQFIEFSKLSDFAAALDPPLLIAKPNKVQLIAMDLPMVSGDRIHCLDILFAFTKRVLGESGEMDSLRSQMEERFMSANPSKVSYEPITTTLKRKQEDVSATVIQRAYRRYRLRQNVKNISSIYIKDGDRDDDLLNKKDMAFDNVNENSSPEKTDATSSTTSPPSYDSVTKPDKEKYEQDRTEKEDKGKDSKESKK
Type: cell-based
Procedure: The ability of the compounds of formula (I) to block the Nav1.7 (or SCN9A) channel were measured using the assay described below.
Human Embryonic Kidney (HEK) cells were transfected with an hSCN9A construct using lipofectamine reagent (Invitrogen), using standard techniques. Cells stably expressing the hSCN9A constructs were identified by their resistance to G-418 (400 μg/ml). Clones were screened for expression using the whole-cell voltage-clamp technique.
HEK cells stably transfected with hSCN9A were maintained in DMEM medium supplemented with 10% heat-inactivated fetal bovine serum and 400 μg/ml G-418 in an incubator at 37° C. with a humidified atmosphere of 10% CO2. For HTS, cells were harvested from flasks by trypsinization and replated in an appropriate multi-well plate (typically 96 or 384 wells/plate) such that confluence would be achieved within 24 hours of plating. For electrophysiological studies, cells were removed from the culture flask by brief trypsinization and re-plated at low density onto glass cover slips. Cells were typically used for electrophysiological experiments within 24 to 72 hours after plating.
Cover slips containing HEK cells expressing hSCN9A were placed in a bath on the stage of an inverted microscope and perfused (approximately 1 ml/minutes) with extracellular solution of the following composition: 138 mM NaCl, 2 mM CaCl2, 5.4 mM KCl, 1 mM MgCl2, 10 mM glucose, and 10 mM HEPES, pH 7.4, with NaOH. […] The osmolarity of the extracellular and intracellular solutions was 300 mOsm/kg and 295 mOsm/kg, respectively. All recordings were made at room temperature (22-24° C.) using AXOPATCH 200B amplifiers and PCLAMP software (Axon Instruments, Burlingame, Calif.).
hSCN9A currents in HEK cells were measured using the whole-cell configuration of the patch-clamp technique (Hamill et al., 1981). Uncompensated series resistance was typically 2 to 5 mega ohms and >85% series resistance compensation was routinely achieved. As a result, voltage errors were negligible and no correction was applied. Current records were acquired at 20 to 50 KHz and filtered at 5 to 10 KHz.
HEK cells stably transfected with hSCN9A were viewed under Hoffman contrast optics and placed in front of an array of flow pipes emitting either control or compound-containing extracellular solutions. All compounds were dissolved in dimethyl sulfoxide to make 10 mM stock solutions, which were then diluted into extracellular solution to attain the final concentrations desired. […] The voltage-dependence of inactivation was determined by applying a series of depolarizing prepulses (8 sec long in 10 mV increments) from a negative holding potential. The voltage was then immediately stepped to 0 mV to assess the magnitude of the sodium current. Currents elicited at 0 mV were plotted as a function of prepulse potential to allow estimation of the voltage at which 50% of the channels were inactivated (midpoint of inactivation or V1/2). Compounds were tested for their ability to inhibit hSCN9A sodium channels by activating the channel with a 20 msec voltage step to 0 mV following an 8 second conditioning prepulse to the empirically determined V1/2. Compound effect (% inhibition) was determined by difference in current amplitude before and after application of test compounds. For ease of comparison, “estimated IC-50” (EIC50) values were calculated from single point electrophysiology data by the following equation, (tested concentration, uM)×(100−% inhibition/% inhibition). Inhibition values <20% and >80% were excluded from the calculation.
Electrophysiological assays were conducted with PatchXpress 7000 hardware and associated software (Molecular Devices Corp). All assay buffers and solutions were identical to those used in conventional whole-cell voltage clamp experiments described above. hSCN9A cells were grown as above to 50%-80% confluency and harvested by trypsinization. […]

SMILES | IC50 [nM]
CN(C)S(=O)(=O)NC(=O)c1cc(F)c(COc2ccc(Cl)c(C(F)(F)F)c2)cc1F [Example 6, 4-{[4-chloro-3-(trifluoromethyl)phenoxy]methyl}-N-[(dimethylamino)sulfonyl]-2,5-difluorobenzamide] | 200
CN(C)S(=O)(=O)NC(=O)c1cc(F)c(COc2ccc(Cl)c(Cl)c2)cc1F [Example 10, 4-[(3,4-dichlorophenoxy)methyl]-N-[(dimethylamino)sulfonyl]-2,5-difluorobenzamide] | 350
CN(C)S(=O)(=O)NC(=O)c1cc(Cl)c(COc2cnc(C3CC3)c(Cl)c2)cc1F [Example 14, 5-chloro-4-{[(5-chloro-6-cyclopropylpyridin-3-yl)oxyl]methyl}-N-[(dimethylamino)sulfonyl]-2-fluorobenzamide diethylamine salt] | 420
CN(C)S(=O)(=O)NC(=O)c1cc(F)c(COc2ccc(F)c(Cl)c2)cc1F [Example 11, 4-[(3-chloro-4-fluorophenoxy)methyl]-N-[(dimethylamino)sulfonyl]-2,5-difluorobenzamide] | 580
O=C(NS(=O)(=O)N1CC(F)(F)C1)c1cc(Cl)c(COc2cnc(C3CC3)c(Cl)c2)cc1F [Example 16, 5-chloro-4-{[(5-chloro-6-cyclopropylpyridin-3-yl)oxy]methyl}-N-[(3,3-difluoroazetidin-1-yl)sulfonyl]-2-fluorobenzamide] | 270
CC(C)Oc1ncc(OCc2cc(F)c(C(=O)NS(=O)(=O)N(C)C)cc2F)cc1Cl [Example 1, 4-{[(5-Chloro-6-isopropoxypyridin-3-yl)oxy]methyl}-N-[(dimethylamino)sulfonyl]-2,5-difluorobenzamide] | 240
CC(C)Oc1ncc(OCc2cc(F)c(C(=O)NS(=O)(=O)N3CCC3)cc2F)cc1Cl [Example 13, N-(azetidin-1-ylsulfonyl)-4-{[(5-chloro-6-isopropoxypyridin-3-yl)oxy]methyl}-2,5-difluorobenzamide] | 150
CN(C)S(=O)(=O)NC(=O)c1ccc(OCc2ccc(Cl)c(Cl)c2)cc1 [Example 12, 4-[(3,4-dichlorobenzyl)oxy]-N-[(dimethylamino)sulfonyl]benzamide] | 2300
O=C(NS(=O)(=O)N1CCC1)c1cc(Cl)c(COc2cnc(C3CC3)c(Cl)c2)cc1F [Example 15, N-(azetidin-1-ylsulfonyl)-5-chloro-4-{[(5-chloro-6-cyclopropylpyridin-3-yl)oxy]methyl}-2-fluorobenzamide] | 90
CN(C)S(=O)(=O)NC(=O)c1cc(F)c(COc2ccc(C(F)(F)F)c(Cl)c2)cc1F [Example 2, 4-{[3-Chloro-4-(trifluoromethyl)phenoxy]methyl}-N-[(dimethylamino)sulfonyl]-2,5-difluorobenzamide] | 110

The remaining lines, values ahead:

IC50 [nM] | SMILES
920 | CN(C)S(=O)(=O)NC(=O)c1ccc(COc2ccc(C(F)(F)F)c(Cl)c2)cc1 [Example 5, 4-{[3-chloro-4-(trifluoromethyl)phenoxy]methyl}-N-[(dimethylamino)sulfonyl]benzamide]
> 3000 | CN(C)S(=O)(=O)NC(=O)c1cc(F)c(COc2ccc(C#N)c(Cl)c2)cc1F [Example 9, 4-[(3-chloro-4-cyanophenoxy)methyl]-N-[(dimethylamino)sulfonyl]-2,5-difluorobenzamide]
850 | CN(C)S(=O)(=O)NC(=O)c1cc(F)c(COc2ccc(Cl)c(F)c2)cc1F [Example 8, 4-[(4-chloro-3-fluorophenoxy)methyl]-N-[(dimethylamino)sulfonyl]-2,5-difluorobenzamide]
8300 | CC(C)Oc1ncc(COc2cc(F)c(C(=O)NS(=O)(=O)N(C)C)cc2F)cc1Cl [Example 7, 4-[(5-chloro-6-isopropoxypyridin-3-yl)methoxy]-N-[(dimethylamino)sulfonyl]-2,5-difluorobenzamide]
1300 | CN(C)S(=O)(=O)NC(=O)c1cc(F)c(OCc2ccc(Cl)c(Cl)c2)cc1F [Example 3, 4-[(3,4-Dichlorobenzyl)oxy]-N-[(dimethylamino)sulfonyl]-2,5-difluorobenzamide]
1500 | CN(C)S(=O)(=O)NC(=O)c1ccc(COc2ccc(Cl)c(C(F)(F)F)c2)cc1 [Example 4, 4-{[4-chloro-3-(trifluoromethyl)phenoxy]methyl}-N-[(dimethylamino)sulfonyl]benzamide]
